Source: ChEMBL document CHEMBL3885881, “DrugMatrix”

Organism: Rattus norvegicus
Assay: DrugMatrix - Regimen: Daily Repeat
Type: toxicity, organism-based, Sprague-Dawley
Set-up: regimen Daily Repeat, gender Male, age 6-8 weeks
Conditions: in vivo, po, 10 mg/kg, route oral GAVAGE, dose level Low, vehicle 100 % WATER; for ABSOLUTE BASOPHIL / ABSOLUTE EOSINOPHIL / ABSOLUTE LYMPHOCYTE / ABSOLUTE MONOCYTE / ABSOLUTE SEGMENTED NEUTROPHIL / BASOPHIL / EOSINOPHIL / ERYTHROCYTE COUNT / HEMATOCRIT / HEMOGLOBIN / LEUKOCYTE COUNT / LYMPHOCYTE / MEAN CORPUSCULAR HEMOGLOBIN / MEAN CORPUSCULAR HEMOGLOBIN CONCENTRATION / MEAN CORPUSCULAR VOLUME / MONOCYTE / NEUTROPHIL / NUCLEATED RED BLOOD CELLS / PLATELET COUNT: tissue Blood; for ALANINE AMINOTRANSFERASE / ALBUMIN / ALKALINE PHOSPHATASE / ASPARTATE AMINOTRANSFERASE / BLOOD UREA NITROGEN / CARBON DIOXIDE / CHLORIDE / CHOLESTEROL / CREATINE PHOSPHOKINASE / CREATININE / GLUCOSE / LIPASE / PHOSPHORUS / POTASSIUM / SODIUM / TOTAL BILIRUBIN / TOTAL PROTEIN / URIC ACID: tissue Plasma

For `Fc1ccc([C@@H]2CCNC[C@H]2COc2ccc3c(c2)OCO3)cc1` [PAROXETINE], the “ABSOLUTE BASOPHIL” value (72 h, time 3 day) was 0 CELLS/uL, the “ABSOLUTE EOSINOPHIL” value (72 h, time 3 day) was 33 CELLS/uL and the “ABSOLUTE LYMPHOCYTE” value (72 h, time 3 day) was 7114.67 CELLS/uL. The “ABSOLUTE MONOCYTE” value (72 h, time 3 day) was 0 CELLS/uL, the “ABSOLUTE SEGMENTED NEUTROPHIL” value (72 h, time 3 day) was 519 CELLS/uL and the BASOPHIL (72 h, time 3 day) was 0%. The EOSINOPHIL (72 h, time 3 day) was 0.33%, the “ERYTHROCYTE COUNT” value (72 h, time 3 day) was 5.11 x10E6/uL and the HEMATOCRIT (72 h, time 3 day) was 31.5%. For the same compound, the HEMOGLOBIN (72 h, time 3 day) was 12.33 G/DL, the “LEUKOCYTE COUNT” value (72 h, time 3 day) was 7.67 x10E3/uL and the LYMPHOCYTE (72 h, time 3 day) was 92.67%. The “MEAN CORPUSCULAR HEMOGLOBIN” value (72 h, time 3 day) was 24.2 pg, the “MEAN CORPUSCULAR HEMOGLOBIN CONCENTRATION” value (72 h, time 3 day) was 39.2 G/DL and the “MEAN CORPUSCULAR VOLUME” value (72 h, time 3 day) was 61.7 fL. The MONOCYTE (72 h, time 3 day) was 0%, the NEUTROPHIL (72 h, time 3 day) was 7% and the “NUCLEATED RED BLOOD CELLS” value (72 h, time 3 day) was 0.33 /100WBC. For the same compound, the “PLATELET COUNT” value (72 h, time 3 day) was 979 x10E3/uL, the “ALANINE AMINOTRANSFERASE” value (72 h, time 3 day) was 52.67 u/L and the ALBUMIN (72 h, time 3 day) was 4 G/DL. The “ALKALINE PHOSPHATASE” value (72 h, time 3 day) was 368 u/L, the “ASPARTATE AMINOTRANSFERASE” value (72 h, time 3 day) was 88.67 u/L and the “BLOOD UREA NITROGEN” value (72 h, time 3 day) was 16 mg/dL. The “CARBON DIOXIDE” value (72 h, time 3 day) was 35.33 mmol/L, the CHLORIDE (72 h, time 3 day) was 100.33 MEQ/L and the CHOLESTEROL (72 h, time 3 day) was 67.33 mg/dL. The “CREATINE PHOSPHOKINASE” value (72 h, time 3 day) was 233 u/L, the CREATININE (72 h, time 3 day) was 0.14 mg/dL and the GLUCOSE (72 h, time 3 day) was 119.33 mg/dL. The LIPASE (72 h, time 3 day) was 9.33 u/L, the PHOSPHORUS (72 h, time 3 day) was 10.97 mg/dL and the POTASSIUM (72 h, time 3 day) was 6.17 MEQ/L. The SODIUM (72 h, time 3 day) was 145.03 MEQ/L, the “TOTAL BILIRUBIN” value (72 h, time 3 day) was 0.2 mg/dL and the “TOTAL PROTEIN” value (72 h, time 3 day) was 5.83 G/DL. The “URIC ACID” value (72 h, time 3 day) was 0.77 mg/dL, the “ABSOLUTE BASOPHIL” value (120 h, time 5 day) was 0 CELLS/uL and the “ABSOLUTE EOSINOPHIL” value (120 h, time 5 day) was 0 CELLS/uL. For the same compound, the “ABSOLUTE LYMPHOCYTE” value (120 h, time 5 day) was 6074.67 CELLS/uL, the “ABSOLUTE MONOCYTE” value (120 h, time 5 day) was 188.33 CELLS/uL and the “ABSOLUTE SEGMENTED NEUTROPHIL” value (120 h, time 5 day) was 703.67 CELLS/uL. For the same compound, the BASOPHIL (120 h, time 5 day) was 0%, the EOSINOPHIL (120 h, time 5 day) was 0% and the “ERYTHROCYTE COUNT” value (120 h, time 5 day) was 5.7 x10E6/uL. The HEMATOCRIT (120 h, time 5 day) was 34.77%, the HEMOGLOBIN (120 h, time 5 day) was 13.23 G/DL and the “LEUKOCYTE COUNT” value (120 h, time 5 day) was 6.97 x10E3/uL. The LYMPHOCYTE (120 h, time 5 day) was 86.67%, the “MEAN CORPUSCULAR HEMOGLOBIN” value (120 h, time 5 day) was 23.2 pg and the “MEAN CORPUSCULAR HEMOGLOBIN CONCENTRATION” value (120 h, time 5 day) was 38.07 G/DL. For the same compound, the “MEAN CORPUSCULAR VOLUME” value (120 h, time 5 day) was 61 fL, the MONOCYTE (120 h, time 5 day) was 2.33% and the NEUTROPHIL (120 h, time 5 day) was 11%. For the same compound, the “NUCLEATED RED BLOOD CELLS” value (120 h, time 5 day) was 0 /100WBC, the “PLATELET COUNT” value (120 h, time 5 day) was 1176.67 x10E3/uL and the “ALANINE AMINOTRANSFERASE” value (120 h, time 5 day) was 56.33 u/L. The ALBUMIN (120 h, time 5 day) was 4.17 G/DL, the “ALKALINE PHOSPHATASE” value (120 h, time 5 day) was 432.67 u/L and the “ASPARTATE AMINOTRANSFERASE” value (120 h, time 5 day) was 87.67 u/L. The “BLOOD UREA NITROGEN” value (120 h, time 5 day) was 17 mg/dL, the “CARBON DIOXIDE” value (120 h, time 5 day) was 31.67 mmol/L and the CHLORIDE (120 h, time 5 day) was 99.67 MEQ/L. The CHOLESTEROL (120 h, time 5 day) was 81 mg/dL, the “CREATINE PHOSPHOKINASE” value (120 h, time 5 day) was 254 u/L and the CREATININE (120 h, time 5 day) was 0.19 mg/dL. For the same compound, the GLUCOSE (120 h, time 5 day) was 152.67 mg/dL, the LIPASE (120 h, time 5 day) was 9.67 u/L and the PHOSPHORUS (120 h, time 5 day) was 10.57 mg/dL. For the same compound, the POTASSIUM (120 h, time 5 day) was 6.09 MEQ/L, the SODIUM (120 h, time 5 day) was 145.13 MEQ/L and the “TOTAL BILIRUBIN” value (120 h, time 5 day) was 0.2 mg/dL. For the same compound, the “TOTAL PROTEIN” value (120 h, time 5 day) was 6.03 G/DL and the “URIC ACID” value (120 h, time 5 day) was 0.77 mg/dL.
